Results: patent USRE42890E1, “Furazanobenzimidazoles” (Basilea Pharmaceutica AG, priority 2003, dated 2011)
Read-outs that look alike come from different tables or passages of the source.

Assays:
[1] = test system: Jily; assay: MTS proliferation assay, Jily; assay type: cell-based; conditions: 72 h incubation, read-out: MTS proliferation assay IC 50 Jily
Procedure: (§1) Cell lines are cultured in RPMI-1640 tissue culture medium containing either 5% or 10% fetal calf serum, 0.05 mM 2-mercaptoethanol, 2 mM glutamine and penicillin/streptomycin 50 μg/ml (complete medium) (Sigma, Buchs, Switzerland). General growth conditions are 37° C. and 7.5% CO2.
(§2) The assay is performed in 96 well tissue culture plates. The cells (range: 1.5*10^3-10^4) are seeded out in 80 μl complete medium 24 h prior to compound treatment. The test compounds are added in 20 μl complete medium containing max 5% DMSO. The final compound concentrations in the assays are 10 μM, 3 μM, 1 μM and 0.3 μM, respectively. The assay plates are incubated for 72 h at culture conditions. The MTS reagent is prepared according to the manufacturer's protocol (Promega G1111). 20 μl MTS reagent are added to each well, the assay plates are quickly spun and incubated for another 3 h at culture conditions. Subsequently, the plates are shortly shaked and absorption measured with a microplate-reader at 492 nm.

[2] = test system: HeLa; assay: MTS proliferation assay, HeLa; assay type: cell-based, human; conditions: 72 h incubation, read-out: MTS proliferation assay IC 50 HeLa
How it was run: (§3)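 Absorbance at 492 nm after 3 h with MTS reagent gave proliferation. This followed 72 h compound exposure (final 0.3, 1, 3, 10 μM) at 37 °C and 7.5% CO2. Cells had been plated 24 h earlier in complete RPMI-1640 with 5% or 10% FCS.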

[3] = test system: adherent cells or suspension cells; assay: Hoechst 33342 nuclear staining (fraction of apoptotic nuclei); assay type: cell-based; set-up: key: 0 relating to no activity; 1 relating to weak activity comprising less than 70% of the cells; score 2 relating to strong activity comprising more than 70% of the cells
[4] = test system: Jurkat; assay: MTS proliferation assay, Jurkat; assay type: cell-based, human; conditions: 72 h incubation, read-out: MTS proliferation assay IC 50 Jurkat
How it was run: as §3

[5] = test system: HT1080; assay: MTS proliferation assay, HT1080; assay type: cell-based, human; conditions: HT1080, 72 h incubation; read-out: MTS proliferation assay IC 50 HT1080
Procedure: as §1
The following human cell lines (either EGFP transfected or not) are being used: HeLa (ATCC: CCL-2), KB (ATCC: CCL-17), MCF7 (ATCC: HTB-22), SK-BR-3 (ATCC: HTB-30), SK-Mel 1 (ATCC: HTB-67), SK-Mel 28 (ATCC: HTB-72), PC-3 (ATCC: CRL-1435), SW 480 (ATCC: CCL-228), NCl-H460 (ATCC: HTB-177), NCl-H1792 (ATCC: CRL-5895), HT1080 (ATCC: CCL-21), Jurkat (ATCC: TIB-152), Ramos (ATCC: CRL-1596), Raji (ATCC: CCL-86), H9 (ATCC: HTB-176), Hut78 (ATCC: TIB-161), K562 (ATCC: CCL 243), HL-60 (ATCC: CCL 240), U-87MG (ATCC: HTB-14), HepG2 (ATCC: HB-8065), U-2 OS (ATCC: HTB-96), Saos-2 (ATCC: HTB-85), U937 (ATCC: CRL 1593), Hs 578T (ATCC: HTB 126), HBL-100 (ATCC: HTB 124), Molt-4 (ATCC: CRL 1582).
as §2

[6] = test system: MRC5; assay: MTS proliferation assay, MRC5; assay type: cell-based; conditions: MRC5, 72 h incubation; read-out: MTS proliferation assay IC 50 MRC5
How it was run: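 Antiproliferative read-out by MTS (3 h, A492) after 72 h compound exposure at final 0.3–10 μM (four concentrations). Cells were plated 24 h earlier in RPMI-1640 containing 5% or 10% FCS, cultured at 37 °C with 7.5% CO2.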

SMILES	IC50 [1]	IC50 [2]	Hoechst 33342 nuclear staining score ([3]; H460, conc 0.01 μm)	Hoechst 33342 nuclear staining score ([3]; H460, conc 0.1 μm)	Hoechst 33342 nuclear staining score ([3]; H460, conc 1 μm)	Hoechst 33342 nuclear staining score ([3]; HeLa, conc 0.01 μm)	Hoechst 33342 nuclear staining score ([3]; HeLa, conc 0.1 μm)	Hoechst 33342 nuclear staining score ([3]; HeLa, conc 1 μm)	Hoechst 33342 nuclear staining score ([3]; Jily, conc 0.01 μm)	Hoechst 33342 nuclear staining score ([3]; Jily, conc 0.1 μm)	Hoechst 33342 nuclear staining score ([3]; Jily, conc 1 μm)	Hoechst 33342 nuclear staining score ([3]; Jurkat, conc 0.01 μm)	Hoechst 33342 nuclear staining score ([3]; Jurkat, conc 0.1 μm)	Hoechst 33342 nuclear staining score ([3]; Jurkat, conc 1 μm)	Hoechst 33342 nuclear staining score ([3]; MRC5, conc 0.01 μm)	Hoechst 33342 nuclear staining score ([3]; MRC5, conc 0.1 μm)	Hoechst 33342 nuclear staining score ([3]; MRC5, conc 1 μm)	Hoechst 33342 nuclear staining score ([3]; PBLs, conc 0.01 μm)	Hoechst 33342 nuclear staining score ([3]; PBLs, conc 0.1 μm)	Hoechst 33342 nuclear staining score ([3]; PBLs, conc 1 μm)	also measured
Cc1ccc(C(=O)Cn2c(-c3nonc3N)nc3ccccc32)cc1C [Example 53]	10 to 100 nM	10 to 100 nM	0	2 (score 2 relating to strong activity comprising more than 70% of the cells)	2 (score 2 relating to strong activity comprising more than 70% of the cells)	0	2 (score 2 relating to strong activity comprising more than 70% of the cells)	2 (score 2 relating to strong activity comprising more than 70% of the cells)	0	2 (score 2 relating to strong activity comprising more than 70% of the cells)	2 (score 2 relating to strong activity comprising more than 70% of the cells)	2 (score 2 relating to strong activity comprising more than 70% of the cells)	2 (score 2 relating to strong activity comprising more than 70% of the cells)	2 (score 2 relating to strong activity comprising more than 70% of the cells)	1 (1 relating to weak activity comprising less than 70% of the cells)	2 (score 2 relating to strong activity comprising more than 70% of the cells)	2 (score 2 relating to strong activity comprising more than 70% of the cells)	0	0	0	–
Cc1ccc(C(=O)Cn2c(-c3nonc3NCCCO)nc3ccccc32)cc1C [Example 52]	10 to 100 nM	10 to 100 nM	0	1 (1 relating to weak activity comprising less than 70% of the cells)	2 (score 2 relating to strong activity comprising more than 70% of the cells)	0	2 (score 2 relating to strong activity comprising more than 70% of the cells)	2 (score 2 relating to strong activity comprising more than 70% of the cells)	0	2 (score 2 relating to strong activity comprising more than 70% of the cells)	2 (score 2 relating to strong activity comprising more than 70% of the cells)	0	2 (score 2 relating to strong activity comprising more than 70% of the cells)	2 (score 2 relating to strong activity comprising more than 70% of the cells)	0	2 (score 2 relating to strong activity comprising more than 70% of the cells)	2 (score 2 relating to strong activity comprising more than 70% of the cells)	0	0	0	–
Cc1ccc(OCn2c(-c3nonc3NCCC#N)nc3ccccc32)cc1C [Example 10, 4-[1-(3,4-Dimethylphenoxymethyl)-1H-benzimidazol-2-yl]-furazan-3-yl-N-(2-cyanoethyl)-amine]	10 to 100 nM	–	0	1 (1 relating to weak activity comprising less than 70% of the cells)	2 (score 2 relating to strong activity comprising more than 70% of the cells)	0	0	2 (score 2 relating to strong activity comprising more than 70% of the cells)	0	1 (1 relating to weak activity comprising less than 70% of the cells)	2 (score 2 relating to strong activity comprising more than 70% of the cells)	0	2 (score 2 relating to strong activity comprising more than 70% of the cells)	2 (score 2 relating to strong activity comprising more than 70% of the cells)	0	0	1 (1 relating to weak activity comprising less than 70% of the cells)	0	0	0	IC50 ([2]; Homo sapiens): 100 to 1000 nM
O=C(Cn1c(-c2nonc2NCCCO)nc2ccccc21)c1ccc(Cl)cc1 [Example 11, 4-[1-(4-Chlorophenacyl)-1H-benzimidazol-2-yl]-furazan-3-yl-N-(3-hydroxypropyl)-amine]	10 to 100 nM	–	0	0	2 (score 2 relating to strong activity comprising more than 70% of the cells)	0	1 (1 relating to weak activity comprising less than 70% of the cells)	2 (score 2 relating to strong activity comprising more than 70% of the cells)	0	2 (score 2 relating to strong activity comprising more than 70% of the cells)	2 (score 2 relating to strong activity comprising more than 70% of the cells)	0	2 (score 2 relating to strong activity comprising more than 70% of the cells)	2 (score 2 relating to strong activity comprising more than 70% of the cells)	0	1 (1 relating to weak activity comprising less than 70% of the cells)	2 (score 2 relating to strong activity comprising more than 70% of the cells)	0	0	0	IC50 ([2]; Homo sapiens): 100 to 1000 nM
Cc1cc2nc(-c3nonc3N)n(CC(=O)c3ccc(-c4ccccc4)cc3)c2cc1C [Example 112]	–	> 1000 nM	0	0	0	0	0	0	0	0	0	0	0	0	0	0	0	0	0	0	IC50 [4]: > 1000 nM; IC50 [5]: > 1000 nM; IC50 [6]: > 1000 nM
